Key:
[1] = test system: angiotensin II receptors (AT1/AT2) of granulosa cell; settings: cited from earlier work
[2] = test system: rat striatum acetylcholine (ACh); test: effect on rat striatal acetylcholine (ACh) levels; type: in vivo; settings: for ACh concentration, rat striatum: vehicle 61.0 ± 2.33; for ACh, rat striatum, time course: control 65.4 ± 2.47
Protocol: ACh concentrations were determined as described below. Each
Results were analyzed by a oneway

[3] = test system: rat hippocampus acetylcholine (ACh); test: effect on rat hippocampal acetylcholine (ACh) levels; settings: 30 mg/kg IP, 0.5 h; ± SEM; vehicle 23.9 ± 2.39; * p < 0.05
Protocol: Thirty minutes after dosing, the rats were sacrificed by exposure to microwave irradiation. […] Haloperidol (2 mg/kg, IP) provides a positive control.
dosing ACh concentrations were determined as described below.

[4] = target: T1, AT2 receptor (whole rat brain) (Rattus norvegicus, UniProt P35351); test: angiotensin II receptor binding in whole rat brain (DTT protocol)
T1 construct: IC50 Values in whole Rat Brain Preparations; from tissue; host or cells: whole rat brain
T1 sequence (P35351 1-363): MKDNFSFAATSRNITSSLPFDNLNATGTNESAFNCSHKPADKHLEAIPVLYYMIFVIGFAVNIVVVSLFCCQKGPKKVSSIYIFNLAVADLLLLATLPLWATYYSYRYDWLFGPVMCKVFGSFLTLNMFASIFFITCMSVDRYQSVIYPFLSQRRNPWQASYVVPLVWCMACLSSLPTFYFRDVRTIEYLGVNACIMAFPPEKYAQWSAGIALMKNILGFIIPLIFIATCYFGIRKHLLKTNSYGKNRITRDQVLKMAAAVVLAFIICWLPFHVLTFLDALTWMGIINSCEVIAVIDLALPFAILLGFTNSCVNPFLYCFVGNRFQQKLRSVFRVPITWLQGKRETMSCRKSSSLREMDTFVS
From the text: Since receptor-specific binding in whole brain is low and is a mixture of two subtypes, an alternative protocol (Bennett and Snyder, Eur. J. Pharmacol., 67, 11-25) was used. This method includes DTT and thereby eliminates binding at AT1 receptors, thus-allowing evaluation of AT2 receptor events.

[5] = test system: AT2 receptor, ovarian cells; settings: Pucell et al., Endocrinology 1991; cited from earlier work
[6] = test system: angiotensin II receptors (AT1/AT2) of corpus luteum; test: inhibition of 125I-angiotensin II binding, corpus luteum; design: species or system rabbit; settings: 1 μM; 125I-angiotensin II; data from Warner-Lambert Co.
[7] = target: T2, AT2 receptor (rabbit uterus receptor preparations) (Oryctolagus cuniculus, UniProt G1T351); test: displacement of 3H-angiotensin II from rabbit uterus receptor preparations; type: binding; settings: read-out: IC50 Values in Rabbit Uterine Preparations
T2 construct: cell membrane preparations derived from rabbit uterus and corpus luteum; from tissue; host or cells: rabbit uterus, cell membrane preparation
T2 sequence (G1T351 1-363): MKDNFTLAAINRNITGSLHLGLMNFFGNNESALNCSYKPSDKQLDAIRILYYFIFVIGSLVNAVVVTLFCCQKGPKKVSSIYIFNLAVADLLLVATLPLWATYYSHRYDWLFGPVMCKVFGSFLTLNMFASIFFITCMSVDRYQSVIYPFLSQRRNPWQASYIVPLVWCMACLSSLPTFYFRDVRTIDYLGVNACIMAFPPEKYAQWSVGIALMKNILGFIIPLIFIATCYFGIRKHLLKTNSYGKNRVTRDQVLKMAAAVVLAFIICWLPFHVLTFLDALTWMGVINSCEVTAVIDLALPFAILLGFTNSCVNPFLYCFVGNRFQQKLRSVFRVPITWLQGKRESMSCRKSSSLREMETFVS
From the text: AT2 receptors are known to exist in organs of the female reproductive system. […] More specifically, AT2 receptors are densely located on granulosa cells in atretic follicles of the ovary.

[8] = effect on renal free water clearance in anesthetized dogs; settings: for Free Water Clearance: predose -0.24 ± 0.05, mean ± SE
From the text: Dogs were anesthetized with sodium pentobarbital after an overnight fast. Animals were placed on a prewarmed surgical table, intubated and prepared for renal clearance experiments. Femoral arteries were cannulated for aortic blood pressure measurements and for blood sampling. A femoral vein was cannulated and used for the infusion of inulin. A left flank incision was made to expose the kidney and ureter. An electromagnetic flow probe was placed on the left renal artery and the left ureter was cannulated for urine collection. An intrarenal infusion of 5% dextrose in water (D5W, 50 μL/min) was administered throughout the protocol except during drug treatment intervals. A priming dose of 50 mL D5W containing 200 mg/kg insulin was administered to each dog via the femoral vein catheter and then followed by a sustained infusion of inulin in D5W (15 mg/mL, 0.075 mL/min/kg).
A clearance consisted of a timed urine collection with a midpoint blood sample. […] These last two clearances were designated as postdose.
Plasma and urinary electrolytes were determined with an ion selective electrode analyzer. Urine and plasma inulin concentrations were assayed using an anthrone colorimetric method (Davidson, et al, J. Lab and Clin. Med., 1963, 62, 351-356). Renal clearances and fractional excretion were calculated using standard formulas (Vander, Renal Physiology, 4th ed, pp 44-52 (1991)).

[9] = test system: angiotensin II receptors (AT1 and AT2), rat brain regions; test: displacement of 125I-angiotensin II from receptor preparations of rat brain regions; type: binding
Protocol: The concentration of all three antagonist compounds in these experiments is 1 μM (above the maximal effect concentration).

[10] = estrous cycles in the mature female rat; type: in vivo; settings: for Length of cycles: Pre Rx 4; for Number of cycles observed: Pre Rx 10
Protocol: Female rats underwent vaginal smearing every morning for 5 weeks; rats with regular 4-day cycles (proestrus, estrus, metestrus, diestrus) were chosen for further study. Groups of rats (n=5) were implanted with Alzet osmotic minipumps (Model 2ML2) containing Example 1 or vehicle on the afternoon of estrus (approximately 2 PM). Drug-treated animals received 30 mg/kg/day Example I for 14 days. Cycles were continually monitored throughout the treatment period and for an additional 20 to 22 days posttreatment.
Vehicle-treated animals continued to cycle in a 4-day pattern throughout the study.

[11] = 10 mg/kg IP, 0.5 h, ± SEM, * p < 0.05

Cc1cc(Cn2cnc3c2C[C@@H](C(=O)O)N(C(=O)C(c2ccccc2)c2ccccc2)C3)ccc1N(C)C [Example 1]
% Inhibition with 1 μM Antagonist, Granulosa cell ([1]; 1 μM, 125I-angiotensin II, adapted from Pucell et al., Endocrinology 1991): 97%
displacement of 125I-angiotensin II, granulosa cells (in words) ([1]; Table IX): displaces nearly all of the 125I-angiotensin II
ACh concentration, rat striatum ([2]; 1 mg/kg IP, 0.5 h, ± SEM): 57.9 ± 1.86 nM/g
ACh concentration, rat striatum [2, 11]: 48.1 ± 0.99 nM/g
ACh, rat striatum, time course [2, 11]: 37.6 ± 2.10 nM/g
ACh, rat striatum, time course ([2]; 10 mg/kg IP, 1.0 h, ± SEM, * p < 0.05): 47.9 ± 2.24 nM/g
ACh, rat striatum, time course ([2]; 10 mg/kg IP, 3.0 h, ± SEM, * p < 0.05): 50.2 ± 4.53 nM/g
ACh, rat striatum, time course ([2]; 10 mg/kg IP, 6.0 h, ± SEM): 55.8 ± 4.28 nM/g
ACh, rat striatum, time course ([2]; 10 mg/kg IP, 24.0 h, ± SEM): 61.3 ± 2.30 nM/g
time of peak ACh lowering effect ([2]; 10 mg/kg, IP): 0.5 h
time for ACh levels to return to control levels ([2]; 10 mg/kg, IP, gradual return): 24 h
ACh, Striatum (Table V) ([2]; 30 mg/kg IP, 0.5 h, ± SEM, vehicle 52.9 ± 1.72, * p < 0.05): 39.7 ± 0.99 nM/g
ACh concentration, rat striatum ([2]; 30 mg/kg IP, 0.5 h, ± SEM, * p < 0.05): 37.6 ± 2.10 nM/g
ACh concentration, rat striatum ([2]; 60 mg/kg IP, 0.5 h, ± SEM, * p < 0.05): 41.1 ± 1.89 nM/g
striatal ACh lowering compared with haloperidol (in words) ([2]; IP, haloperidol 2 mg/kg): matched the efficacy of haloperidol
ACh content in brain tissues (in words) ([2]; Tables IV, V and VI): lowers ACh content in brain tissues in a dose dependant and time dependant manner
ACh, Hippocampus (Table V) [3]: 15.1 ± 1.55 nM/g
IC50 [4]: 200 nM
AT2 antagonism in ovarian cells [5]: AT2 antagonistic properties
% Inhibition with 1 μM Antagonist, Corpus luteum [6]: 3%
IC50 [7]: 21 nM
Free Water Clearance, Change from Predose ([8]; 60 min, dose 3 intrarenal): +54%
Free Water Clearance, Change from Predose ([8]; 90 min, dose 30 intrarenal): +150%
Free Water Clearance ([8]; 90 min, dose 30 intrarenal, * p = 0.097 vs vehicle): +0.11 ± 0.19 mL/min
Free Water Clearance, Change from Predose ([8]; 120 min, dose 300 intrarenal): +370%
Free Water Clearance ([8]; 120 min, dose 300 intrarenal, ** p = 0.015 vs vehicle): +0.64 ± 0.30 mL/min
Free Water Clearance ([8]; 150 min, postdose (dose 0, after washout), *** p = 0.002 vs vehicle): +0.29 ± 0.10 mL/min
Free water clearance, increase from predose levels ([8]; intrarenal infusion, cumulative doses 3, 30 and 300 μg/kg/min): up to 370%
free water clearance (in words) ([8]; versus vehicle control): increase in free water clearance that is dose dependant and statistically significant when compared to the vehicle control
displacement of 125I-angiotensin II in rat brain areas (in words) ([9]; 1 μM per text, each area of brain examined): displace a fraction of the ^125 I-angiotensin II that is displaced by saralasin
125I-Angiotensin II Bound, Brain Stem ([9]; rat brain stem, antagonist 10 μM, total 2124): 1258 cpm
125I-Angiotensin II Bound, Cerebellum ([9]; rat cerebellum, antagonist 10 μM, total 571): 446 cpm
125I-Angiotensin II Bound, Cortex ([9]; rat cortex, antagonist 10 μM, total 766): 507 cpm
125I-Angiotensin II Bound, Cortical Neurons ([9]; rat cortical neurons, antagonist 10 μM, total 2647): 2118 cpm
125I-Angiotensin II Bound, Striatal Membrane ([9]; rat striatal membrane, antagonist 10 μM, total 2462): 1838 cpm
cyclicity during treatment (in words) ([10]; 30 mg/kg/day, 14 days): acyclic during the 14-day treatment interval
cyclicity posttreatment (in words) ([10]; 20 to 22 days posttreatment): resumed cycling during the posttreatment observation period
Length of cycles ([10]; Post Rx (20 to 22 days posttreatment), vehicle Post Rx 4): 3.9 days
Number of cycles observed ([10]; Post Rx (20 to 22 days posttreatment), vehicle Post Rx 5): 4
Length of cycles ([10]; Rx: 30 mg/kg/day, 14 days, osmotic minipump, vehicle Rx 4.5): 14.4 days
Number of cycles observed ([10]; Rx: 30 mg/kg/day, 14 days, osmotic minipump, vehicle Rx 3): 1
effect on menstrual cycle (in words) ([10]; reproductive studies in rats): interrupts the menstrual cycle
